From patent publication US9108959B2, “Process for the preparation of an orexin receptor antagonist” (Merck Sharp & Dohme Corp., priority 2011, dated 2015)

Test: relative thermodynamic stability of crystalline forms (slurry of equal amounts of the two forms in EtOH at various temperatures)
Type: physicochemical
Settings: for temperatures at which the form is the thermodynamically most stable crystalline form: enantiotropically related forms
Method: Anhydrous form I and Anhydrous form II are enatiotropically related. […] The transition temperature between anhydrous form I and anhydrous form II was determined by slurring a mixture containing equal amounts of the two forms in EtOH at various temperatures. The transition temperature between anhydrous form I and anhydrous form II is between 35 and 40° C. […] Anhydrous Form II can be synthesized using a crystallization process that is more efficient and results in improved particle size and morphology control relative to anhydrous form I. Anhydrous form II has better crystallinity, better filtration properties and gives better purity rejection than anhydrous form I. Anhydrous form II has better processability for preparing formulations than Anhydrous form I.

SMILES	stability of crystalline phase (at 25° C.)	temperatures at which the form is the thermodynamically most stable crystalline form [°C]
Cc1ccc(-n2nccn2)c(C(=O)N2CCN(c3nc4cc(Cl)ccc4o3)CC[C@H]2C)c1 [Anhydrous form I, [(7R)-4-(5-chloro-1,3-benzoxazol-2-yl)-7-methyl-1,4-diazepan-1-yl][5-methyl-2-(2H-1,2,3-triazol-2-yl)phenyl]methanone]	most stable crystalline phase	≤ 35
Cc1ccc(-n2nccn2)c(C(=O)N2CCN(c3nc4cc(Cl)ccc4o3)CC[C@H]2C)c1 [Anhydrous form II, [(7R)-4-(5-chloro-1,3-benzoxazol-2-yl)-7-methyl-1,4-diazepan-1-yl][5-methyl-2-(2H-1,2,3-triazol-2-yl)phenyl]methanone]		≥ 40
